According to ChEMBL document CHEMBL4732067, “Synthesis and evaluation of new compounds bearing 3-(4-aminopiperidin-1-yl)methyl magnolol scaffold as anticancer agents for the treatment of non-small cell lung cancer via targeting autophagy” (Eur J Med Chem, 2021):
pIC50: −log10 of the molar value.

How the values were obtained:
HCC827 = experiment: Antiproliferative activity against human HCC827 cells assessed as reduction in cell viability after 72 hrs by MTT assay; assay type: functional, cell-based; conditions: HCC827, 72 h
NCI-H1975 = experiment: Antiproliferative activity against human NCI-H1975 cells assessed as reduction in cell viability after 72 hrs by MTT assay; assay type: functional, cell-based; conditions: NCI-H1975, 72 h
NCI-H460 = experiment: Antiproliferative activity against human NCI-H460 cells assessed as reduction in cell viability after 72 hrs by MTT assay; assay type: functional, cell-based; conditions: NCI-H460, 72 h
A549 = experiment: Antiproliferative activity against human A549 cells expressing wild type EGFR assessed as reduction in cell viability after 72 hrs by MTT assay; assay type: functional, cell-based; conditions: A549, 72 h
[1] = Antiproliferative activity against human SPCA1 cells expressing wild type EGFR assessed as reduction in cell viability after 72 hrs by MTT assay; assay type: functional, cell-based; conditions: SPCA1, 72 h
NCI-H1650 = experiment: Antiproliferative activity against human NCI-H1650 cells expressing EGFR mutant assessed as reduction in cell viability after 72 hrs by MTT assay; assay type: functional, cell-based; conditions: NCI-H1650, 72 h
NCI-H441 = experiment: Antiproliferative activity against human NCI-H441 cells […] assessed as reduction in cell viability after 72 hrs by MTT assay; assay type: functional, cell-based; conditions: NCI-H441, 72 h
[2] = Metabolic stability in human liver microsomes assessed as half life; assay type: ADME, Microsome
[3] = Metabolic stability in human liver microsomes assessed as intrinsic clearance per gram protein; assay type: ADME, Microsome
L929 = experiment: Cytotoxicity against mouse L929 cells; assay type: cell-based
[4] = Antitumor activity against mouse C26 cells xenografted in BALB/c mouse assessed as tumor growth inhibition at 50 mg/kg, po administered once daily and measured every two days by caliper method relative to control; assay type: functional; conditions: 48 h, read-out: TGI
[5] = Toxicity in nude BALB/c mouse xenografted with C26 cells assessed as change in body weight at 50 mg/kg, po administered once daily and measured every two days; assay type: organism-based; conditions: in vivo
[6] = Toxicity in nude BALB/c mouse xenografted with C26 cells assessed as abnormalities in liver size and morphology at 50 mg/kg, po administered once daily; assay type: organism-based; conditions: in vivo
[7] = Toxicity in nude BALB/c mouse xenografted with C26 cells assessed as abnormalities in kidney size and morphology at 50 mg/kg, po administered once daily; assay type: organism-based; conditions: in vivo
[8] = Toxicity in nude BALB/c mouse xenografted with C26 cells assessed as abnormalities in lung size and morphology at 50 mg/kg, po administered once daily; assay type: organism-based; conditions: in vivo
[9] = Toxicity in nude BALB/c mouse xenografted with C26 cells assessed as abnormalities in heart size and morphology at 50 mg/kg, po administered once daily; assay type: organism-based; conditions: in vivo

pIC50 (HCC827) | pIC50 (NCI-H1975) | pIC50 (NCI-H460) | Compound | also measured
5.81 | 5.38 | 5.76 | C=CCc1ccc(OC(C)C)c(-c2cc(CC=C)cc(CN3CCC(NC(=O)[C@H](N)c4ccccc4)CC3)c2O)c1 | 
5.27 | 5.16 | 5.21 | C=CCc1ccc(OCC)c(-c2cc(CC=C)cc(CN3CCC(NC(=O)[C@@H](N)CO)CC3)c2O)c1 | 
5.55 | 5.24 | 5.54 | C=CCc1ccc(OC(C)C)c(-c2cc(CC=C)cc(CN3CCC(NC(=O)[C@@H](N)CO)CC3)c2O)c1 | 
< 4.70 | < 4.70 | < 4.70 | C=CCc1ccc(O)c(-c2cc(CC=C)cc(CN3CCC(NC(=O)[C@@H]4CCCN4)CC3)c2O)c1 | 
5.32 | 5.39 | 5.36 | C=CCc1ccc(O)c(-c2cc(CC=C)cc(CN3CCC(NC(=O)[C@H](N)Cc4ccccc4)CC3)c2O)c1 | 
4.90 | 4.91 | 5.02 | C=CCc1ccc(OCCCCCC)c(-c2cc(CC=C)cc(CN3CCC(N)CC3)c2O)c1 | 
< 4.70 | < 4.70 | < 4.70 | C=CCc1ccc(O)c(-c2cc(CC=C)cc(CN3CCCC3)c2O)c1 | 
5.69 | 5.38 | 5.54 | C=CCc1ccc(OC(C)C)c(-c2cc(CC=C)cc(CN3CCC(N)CC3)c2OC(C)C)c1 | 
< 4.70 | < 4.70 | < 4.70 | C=CCc1ccc(O)c(-c2cc(CC=C)cc(CN3CC[C@H](N)C3)c2O)c1 | 
5.45 | 5.20 | 5.23 | C=CCc1ccc(OC2CCCC2)c(-c2cc(CC=C)cc(CN3CCC(N)CC3)c2O)c1 | 
5.36 | 5.16 | 5.21 | C=CCc1ccc(OCCO)c(-c2cc(CC=C)cc(CN3CCC(N)CC3)c2O)c1 | 
< 4.70 | < 4.70 | < 4.70 | C=CCc1ccc(O)c(-c2cc(CC=C)cc(CN3CCC(NC(=O)[C@H](N)CC(C)C)CC3)c2O)c1 | 
< 4.70 | < 4.70 | < 4.70 | C=CCc1ccc(O)c(-c2cc(CC=C)cc(CCCCN3CCC(N)CC3)c2O)c1 | 
5.13 | 5.13 | 5.06 | C=CCc1ccc(OCCCCO)c(-c2cc(CC=C)cc(CN3CCC(N)CC3)c2O)c1 | 
4.96 | 4.95 | 4.90 | C=CCc1ccc(O)c(-c2cc(CC=C)cc(CN3CCC(NC(=O)[C@@H](N)Cc4ccccc4)CC3)c2O)c1 | 
5.06 | 5.02 | 4.99 | C=CCc1ccc(OCCCCCO)c(-c2cc(CC=C)cc(CN3CCC(N)CC3)c2O)c1 | 
< 4.70 | < 4.70 | < 4.70 | C=CCc1ccc(OCCCCOC(C)=O)c(-c2cc(CC=C)cc(CN3CCC(N)CC3)c2O)c1 | 
< 4.70 | < 4.70 | < 4.70 | C=CCc1ccc(O)c(-c2cc(CC=C)cc(CN3CCC(NC(=O)[C@H]4CCCN4)CC3)c2O)c1 | 
< 4.70 | < 4.70 | < 4.70 | C=CCc1ccc(O)c(-c2cc(CC=C)cc(CN3CCC(NC(=O)CCN)CC3)c2O)c1 | 
5.20 | 5.13 | 5.18 | C=CCc1ccc(O)c(-c2cc(CC=C)cc(CN3CCC(NC(=O)[C@@H](N)CO)CC3)c2O)c1 | 
6.07 | 5.56 | 5.88 | C=CCc1ccc(OC(C)C)c(-c2cc(CC=C)cc(CN3CCC(NC(=O)[C@@H](N)Cc4ccccc4)CC3)c2O)c1 | pIC50 (A549): 5.91; pIC50 [1]: 5.87; pIC50 (NCI-H1650): 5.77; pIC50 (NCI-H441): 5.69; half-life [2]: 21.7 min; CLint [3]: 63.8 mL/min/g; pIC50 (L929): 5.20; inhibition in vivo at 50 mg/kg [4]: 62.4%; Activity [5]: Toxic; Activity [6]: Non-Toxic; Activity [7]: Non-Toxic; Activity [8]: Non-Toxic; Activity [9]: Non-Toxic
< 4.70 | < 4.70 | < 4.70 | C=CCc1ccc(O)c(-c2cc(CC=C)cc(CN3CC[C@H](O)C3)c2O)c1 | 
4.02 | 4.06 | 4.02 | C=CCc1ccc(O)c(-c2cc(CC=C)ccc2O)c1 [MAGNOLOL] | pIC50 (A549): 4.08; pIC50 [1]: 4.03; pIC50 (NCI-H1650): 4.18; pIC50 (NCI-H441): 4.18; half-life [2]: 14.7 min; CLint [3]: 94 mL/min/g
< 4.70 | < 4.70 | < 4.70 | C=CCc1ccc(O)c(-c2cc(CC=C)cc(CCN3CCC(N)CC3)c2O)c1 | 
< 4.70 | < 4.70 | < 4.70 | C=CCc1ccc(O)c(-c2cc(CC=C)cc(CN3CCC(NC(=O)CCCCCN)CC3)c2O)c1 | 

pIC50 (HCC827) | pIC50 (NCI-H1975) | pIC50 (NCI-H460) | Compound | also measured
< 4.70 | < 4.70 | < 4.70 | C=CCc1ccc(O)c(-c2cc(CC=C)cc(CN3CCC[C@@H]3CO)c2O)c1 | 
5.20 | 5.16 | 5.18 | C=CCc1ccc(OCCCO)c(-c2cc(CC=C)cc(CN3CCC(N)CC3)c2O)c1 | 
4.79 | < 4.70 | < 4.70 | C=CCc1ccc(O)c(-c2cc(CC=C)cc(Cn3ccc(N)n3)c2O)c1 | 
< 4.70 | < 4.70 | < 4.70 | C=CCc1ccc(OCCCCCOC(C)=O)c(-c2cc(CC=C)cc(CN3CCC(N)CC3)c2OCCCCCOC(C)=O)c1 | 
< 4.70 | < 4.70 | < 4.70 | C=CCc1ccc(O)c(-c2cc(CC=C)cc(CN3CCC(NC(=O)CCCN)CC3)c2O)c1 | 
< 4.70 | < 4.70 | 4.76 | C=CCc1ccc(O)c(-c2cc(CC=C)cc(CN3CCC(NC(=O)[C@H](C)N)CC3)c2O)c1 | 
5.67 | 5.46 | 5.44 | C=CCc1ccc(OCC)c(-c2cc(CC=C)cc(CN3CCC(N)CC3)c2OCC)c1 | 
5.04 | 4.99 | 5.08 | C=CCc1ccc(O)c(-c2cc(CC=C)cc(CN3CCC(NC(=O)[C@H](N)CO)CC3)c2O)c1 | 
4.81 | < 4.70 | < 4.70 | C=CCc1ccc(O)c(-c2cc(CC=C)cc(Cn3cc(N)cn3)c2O)c1 | 
5.02 | 4.98 | 5.06 | C=CCc1ccc(OCCCC)c(-c2cc(CC=C)cc(CN3CCC(N)CC3)c2O)c1 | 
< 4.70 | < 4.70 | < 4.70 | C=CCc1ccc(O)c(-c2cc(CC=C)cc(CN3CCC(NC(=O)[C@@H](C)N)CC3)c2O)c1 | 
5.28 | 5.30 | 5.31 | C=CCc1ccc(OCCC)c(-c2cc(CC=C)cc(CN3CCC(N)CC3)c2O)c1 | 
< 4.70 | < 4.70 | < 4.70 | C=CCc1ccc(O)c(-c2cc(CC=C)cc(CN3CCC(NC(=O)[C@H](N)CCSC)CC3)c2O)c1 | 
< 4.70 | < 4.70 | < 4.70 | C=CCc1ccc(O)c(-c2cc(CC=C)cc(CN3CCC(NC(=O)[C@@H](N)CCSC)CC3)c2O)c1 | 
5.35 | 4.86 | 5.16 | C=CCCCCOc1ccc(CC=C)cc1-c1cc(CC=C)cc(CN2CCC(N)CC2)c1O | 
5.37 | 4.91 | 5.21 | C=CCCOc1ccc(CC=C)cc1-c1cc(CC=C)cc(CN2CCC(N)CC2)c1O | 
5.46 | 5.39 | 5.37 | C=CCc1ccc(OC)c(-c2cc(CC=C)cc(CN3CCC(N)CC3)c2O)c1 | 
5.23 | 5.16 | 5.19 | C=CCc1ccc(O)c(-c2cc(CC=C)cc(CN3CCC(NC(=O)[C@H](N)c4ccccc4)CC3)c2O)c1 | 
4.91 | 4.80 | 4.80 | C=CCc1ccc(O)c(-c2cc(CC=C)cc(CN3CCC(NC(=O)[C@@H](N)c4ccccc4)CC3)c2O)c1 | 
< 4.70 | < 4.70 | < 4.70 | C=CCc1ccc(O)c(-c2cc(CC=C)cc(CCCN3CCC(N)CC3)c2O)c1 | 
5.91 | 5.14 | 5.84 | C=CCc1ccc(OCC)c(-c2cc(CC=C)cc(CN3CCC(NC(=O)[C@H](N)c4ccccc4)CC3)c2O)c1 | 
< 4.70 | < 4.70 | < 4.70 | C=CCc1ccc(O)c(-c2cc(CC=C)cc(CN3CCC(NC(=O)[C@@H](N)CC(C)C)CC3)c2O)c1 | 
< 4.70 | < 4.70 | < 4.70 | C#CCOc1ccc(CC=C)cc1-c1cc(CC=C)cc(CN2CCC(N)CC2)c1O | 
5.61 | 5.24 | 5.56 | C=CCc1ccc(OCC2CCCO2)c(-c2cc(CC=C)cc(CN3CCC(N)CC3)c2O)c1 (stereo unspecified) | 
6.03 | 5.84 | 5.90 | C=CCc1ccc(OCC)c(-c2cc(CC=C)cc(CN3CCC(N)CC3)c2O)c1 | pIC50 (A549): 5.52; pIC50 [1]: 5.46; pIC50 (NCI-H1650): 5.38; pIC50 (NCI-H441): 5.53; half-life [2]: 130 min; CLint [3]: 10.7 mL/min/g; pIC50 (L929): 5.75
